Test system: 898857-211-R-J1-PDC complex spheroids, growth % test/control
Experiment: Anticancer human tumor 898857-211-R-J1-PDC patient-derived melanoma cell line growth inhibition [RAS]
Details: for IC50: curve of first compound; for viability, T/C: stronger effect = lower value
Procedure, shortened: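 Multi-cell-type spheroids: tumor cells plus HUVEC endothelial cells and mesenchymal stem cells. RAS-pathway inhibitors were combined with targeted agents, each dosed in half-log steps down from clinical Cmax, or from 10 microM when Cmax was unknown.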

[1] = second compound 0.00316 µM, first compound 0.0316 µM
[2] = second compound 0.00316 µM, first compound 0.1 µM
[3] = second compound 0.00316 µM, first compound 0.316 µM
[4] = second compound 0.00316 µM, first compound 1 µM
[5] = second compound 0.00316 µM, first compound 3.16 µM
[6] = second compound 0.00316 µM, first compound 10 µM
[7] = second compound 0.01 µM, first compound 0.0316 µM
[8] = second compound 0.01 µM, first compound 0.1 µM
[9] = second compound 0.01 µM, first compound 0.316 µM
[10] = second compound 0.01 µM, first compound 1 µM
[11] = second compound 0.01 µM, first compound 3.16 µM
[12] = second compound 0.01 µM, first compound 10 µM
[13] = second compound 0.0316 µM, first compound 0.0316 µM
[14] = second compound 0.0316 µM, first compound 0.1 µM
[15] = second compound 0.0316 µM, first compound 0.316 µM
[16] = second compound 0.0316 µM, first compound 1 µM
[17] = second compound 0.0316 µM, first compound 3.16 µM
[18] = second compound 0.0316 µM, first compound 10 µM
[19] = second compound 0.1 µM, first compound 0.0316 µM
[20] = second compound 0.1 µM, first compound 0.1 µM
[21] = second compound 0.1 µM, first compound 0.316 µM
[22] = second compound 0.1 µM, first compound 1 µM
[23] = second compound 0.1 µM, first compound 3.16 µM
[24] = second compound 0.1 µM, first compound 10 µM
[25] = second compound 0.316 µM, first compound 0.0316 µM
[26] = second compound 0.316 µM, first compound 0.1 µM
[27] = second compound 0.316 µM, first compound 0.316 µM
[28] = second compound 0.316 µM, first compound 1 µM
[29] = second compound 0.316 µM, first compound 3.16 µM
[30] = second compound 0.316 µM, first compound 10 µM
[31] = second compound 1 µM, first compound 0.0316 µM
[32] = second compound 1 µM, first compound 0.1 µM
[33] = second compound 1 µM, first compound 0.316 µM
[34] = second compound 1 µM, first compound 1 µM
[35] = second compound 1 µM, first compound 3.16 µM
[36] = second compound 1 µM, first compound 10 µM
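Also: spheroids exposed to compound for seven days before readout.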
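For viability, T/C in this document: 100% = DMSO vehicle control wells.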

## CC1(O)CCCC1n1c(=O)c(C(F)F)cc2cnc(NC3CCN(S(C)(=O)=O)CC3)nc21 (stereo unspecified) + C=CC(=O)N1CCN(c2nc(OCC3CCCN3C)nc3c(F)c(-c4nc(N)cc(C)c4C(F)(F)F)c(Cl)cc23)C(C)C1
Second compound 0.00316 µM
  IC50: 228 nM
Second compound 0.01 µM
  IC50: 300 nM
Second compound 0.0316 µM
  IC50: 252 nM
Second compound 0.1 µM
  IC50: 286 nM
Second compound 0.316 µM
  IC50: 315 nM
Second compound 1 µM
  IC50: 230 nM
[1]
  viability, T/C: 103%
[2]
  viability, T/C: 57.7%
[3]
  viability, T/C: 45.6%
[4]
  viability, T/C: 43.5%
[5]
  viability, T/C: 47.1%
[6]
  viability, T/C: 19.7%
[7]
  viability, T/C: 75.3%
[8]
  viability, T/C: 61%
[9]
  viability, T/C: 39%
[10]
  viability, T/C: 44.9%
[11]
  viability, T/C: 39.7%
[12]
  viability, T/C: 17.4%
[13]
  viability, T/C: 87.6%
[14]
  viability, T/C: 57.1%
[15]
  viability, T/C: 42.4%
[16]
  viability, T/C: 45.6%
[17]
  viability, T/C: 43.7%
[18]
  viability, T/C: 19.3%
[19]
  viability, T/C: 92.1%
[20]
  viability, T/C: 55.5%
[21]
  viability, T/C: 47.9%
[22]
  viability, T/C: 46.1%
[23]
  viability, T/C: 47.7%
[24]
  viability, T/C: 18.6%
[25]
  viability, T/C: 109%
[26]
  viability, T/C: 67%
[27]
  viability, T/C: 46%
[28]
  viability, T/C: 44.7%
[29]
  viability, T/C: 45.2%
[30]
  viability, T/C: 17.5%
[31]
  viability, T/C: 115%
[32]
  viability, T/C: 59.5%
[33]
  viability, T/C: 46.3%
[34]
  viability, T/C: 36%
[35]
  viability, T/C: 42.8%
[36]
  viability, T/C: 10.9%

## CCC(CC)c1cc(NC2CCC(N)C2)n2nccc2n1 (stereo unspecified) + C=CC(=O)N1CCN(c2nc(OCC3CCCN3C)nc3c(F)c(-c4nc(N)cc(C)c4C(F)(F)F)c(Cl)cc23)C(C)C1
Second compound 0.00316 µM
  IC50: 806 nM
Second compound 0.01 µM
  IC50: 851 nM
Second compound 0.0316 µM
  IC50: 1130 nM
Second compound 0.1 µM
  IC50: 1220 nM
Second compound 0.316 µM
  IC50: 1300 nM
Second compound 1 µM
  IC50: 1160 nM
[1]
  viability, T/C: 119%
[2]
  viability, T/C: 97.5%
[3]
  viability, T/C: 81.5%
[4]
  viability, T/C: 49.1%
[5]
  viability, T/C: 1.15%
[6]
  viability, T/C: 0.2%
[7]
  viability, T/C: 114%
[8]
  viability, T/C: 97.8%
[9]
  viability, T/C: 81.7%
[10]
  viability, T/C: 51%
[11]
  viability, T/C: 0.97%
[12]
  viability, T/C: 0.25%
[13]
  viability, T/C: 104%
[14]
  viability, T/C: 104%
[15]
  viability, T/C: 102%
[16]
  viability, T/C: 56%
[17]
  viability, T/C: 1.12%
[18]
  viability, T/C: 0.25%
[19]
  viability, T/C: 95.5%
[20]
  viability, T/C: 110%
[21]
  viability, T/C: 101%
[22]
  viability, T/C: 60%
[23]
  viability, T/C: 1.01%
[24]
  viability, T/C: 0.21%
[25]
  viability, T/C: 123%
[26]
  viability, T/C: 119%
[27]
  viability, T/C: 104%
[28]
  viability, T/C: 66.3%
[29]
  viability, T/C: 1.11%
[30]
  viability, T/C: 0.26%
[31]
  viability, T/C: 120%
[32]
  viability, T/C: 117%
[33]
  viability, T/C: 101%
[34]
  viability, T/C: 59.7%
[35]
  viability, T/C: 0.94%
[36]
  viability, T/C: 0.24%

## CCN1CCN(Cc2ccc(Nc3ncc(F)c(-c4cc(F)c5nc(C)n(C(C)C)c5c4)n3)nc2)CC1 + C=CC(=O)N1CCN(c2nc(OCC3CCCN3C)nc3c(F)c(-c4nc(N)cc(C)c4C(F)(F)F)c(Cl)cc23)C(C)C1
Second compound 0.00316 µM
  IC50: 366 nM
Second compound 0.01 µM
  IC50: 313 nM
Second compound 0.0316 µM
  IC50: 377 nM
Second compound 0.1 µM
  IC50: 490 nM
Second compound 0.316 µM
  IC50: > 1000 nM
Second compound 1 µM
  IC50: 309 nM
Second compound 0.00316 µM, first compound 0.00316 µM
  viability, T/C: 106%
Second compound 0.00316 µM, first compound 0.01 µM
  viability, T/C: 106%
[1]
  viability, T/C: 95.4%
[2]
  viability, T/C: 72.2%
[3]
  viability, T/C: 52.4%
[4]
  viability, T/C: 41.2%
Second compound 0.01 µM, first compound 0.00316 µM
  viability, T/C: 101%
Second compound 0.01 µM, first compound 0.01 µM
  viability, T/C: 106%
[7]
  viability, T/C: 86.6%
[8]
  viability, T/C: 80.2%
[9]
  viability, T/C: 45.7%
[10]
  viability, T/C: 40.2%
Second compound 0.0316 µM, first compound 0.00316 µM
  viability, T/C: 121%
Second compound 0.0316 µM, first compound 0.01 µM
  viability, T/C: 102%
[13]
  viability, T/C: 83.4%
[14]
  viability, T/C: 77%
[15]
  viability, T/C: 45.6%
[16]
  viability, T/C: 39.2%
Second compound 0.1 µM, first compound 0.00316 µM
  viability, T/C: 118%
Second compound 0.1 µM, first compound 0.01 µM
  viability, T/C: 96.4%
[19]
  viability, T/C: 98.2%
[20]
  viability, T/C: 79.2%
[21]
  viability, T/C: 56.4%
[22]
  viability, T/C: 36.3%
Second compound 0.316 µM, first compound 0.00316 µM
  viability, T/C: 112%
Second compound 0.316 µM, first compound 0.01 µM
  viability, T/C: 117%
[25]
  viability, T/C: 91.8%
[26]
  viability, T/C: 64.8%
[27]
  viability, T/C: 59%
[28]
  viability, T/C: 50.9%
Second compound 1 µM, first compound 0.00316 µM
  viability, T/C: 122%
Second compound 1 µM, first compound 0.01 µM
  viability, T/C: 114%
[31]
  viability, T/C: 102%
[32]
  viability, T/C: 67.4%
[33]
  viability, T/C: 53.8%
[34]
  viability, T/C: 38%
